Experimental data: patent US10537559B2, “Isonitramine compound and composition containing same for preventing or treating metabolic diseases” (INJE UNIVERSITY INDUSTRY-ACADEMIC COOPERATION FOUNDATION, priority 2015, dated 2020)

Experiments:
[1] = system: 3T3-L1 mouse preadipocytes; assay: Adipocyte differentiation of 3T3-L1 preadipocytes (Nile red staining); type: cell-based; settings: FIG. 2A
Description: (§1) 3T3-L1 mouse preadipocytes were cultured in a Dulbecco's modified Eagle's medium (DMEM) supplemented with 10% newborn calf serum (Gibco BRL, NY, USA) and antibiotics (100 U/ml penicillin and 100 μg/ml streptomycin, Gibco BRL, NY, USA) in an incubator under humidification conditions of a temperature of 37 r and 5% CO2.
(§2) Afterwards, the cultured 3T3-L1 mouse cells were treated with 0.5 mM 1-methyl-3-isobutylxanthine purchased from Sigma (St. Louis, Mo.), 1 μM dexamethasone, 1 μg/mL insulin, and 10% fetal bovine serum (FBS, Gibco BRL), and then, cultured for 2 days to induce differentiation. After 2 days, the cultured medium was replaced with a fresh DMEM supplemented with 10% FBS and 1 μg/mL insulin. For the next 4 days, the cultured medium was replaced with a fresh DMEM supplemented with 10% FBS every day.
The undifferentiated or differentiated cells were washed three times with phosphate-buffered saline (PBS), and then, fixed with 4% […] (PFA) at room temperature for 1 hour. Afterwards, the resulting cells were washed three times with PBS, and stained with 0.5 μg/ml of nile red (available from Sigma, St. Louis, Mo.) for 10 minutes. Following the completion of the staining, the resulting cells were washed with PBS, and the nuclei thereof were stained again with 4′-6-diamidino-2-phenylindole, (DAPI, available from Invitrogen). […]

[2] = system: 3T3-L1 mouse preadipocytes; assay: Analysis of triglyceride concentration in differentiated adipocytes; type: cell-based; settings: FIG. 2B; adipocytes differentiated 8 days with 100 μM or 500 μM
Description: as §1, §2
The concentration of triglyceride in the cells was measured by using a triglyceride reagent purchased from Sigma and a free glycerol reagent.
The adipocytes were differentiated for 8 days with (+)-isonitramine 1 at a concentration of 100 μM or 500 μM, in a 6-well plate.
To analyze the concentration of triglyceride in the cells, the cells were washed with PBS, and then, lysed with 100 μl of a lysis buffer. […]
Following the completion of the culturing, the absorbance of the cells was measured by using a spectrophotometer at a wavelength of 540 nm.

[3] = system: PPARγ; assay: RT-PCR mRNA expression in adipocytes: PPARγ; type: cell-based, mouse; settings: FIG. 3, β-actin internal control
Description: (§6) According to the manufacturer's instructions, total cell RNA of the undifferentiated adipocytes and differentiated adipocytes was extracted by using Trizol (available from Invitrogen).
(§7) The RNA (4 μg) was reverse-transcribed into cDNA by using M-MLV reverse transcriptase (available from Promega). Accordingly, the expression of peroxisome proliferator-activated receptor γ (PPARγ), CCAAT/enhancer binding protein-α (C/EBPα), adipocyte protein 2 (aP2), lipoprotein lipase (LPL), and adiponectin was each confirmed.
(§8) The variable number of cycles was used to identify the amplification occurred in the linear phase.
(§9) In the PCR amplification, β-actin was used as an internal control group. The PCR products were separated by using 2.0% agarose gel, followed by being visualized by RedSafe nucleic acid staining (available from Intron, Korea) and UV irradiation.

[4] = system: aP2; assay: RT-PCR mRNA expression in adipocytes: aP2; type: cell-based, mouse; settings: FIG. 3, β-actin internal control
Description: as §6, §7, §8, §9

[5] = system: LPL; assay: RT-PCR mRNA expression in adipocytes: LPL; type: cell-based, mouse; settings: FIG. 3, β-actin internal control
Description: as §6, §7, §8, §9

[6] = system: adiponectin; assay: RT-PCR mRNA expression in adipocytes: adiponectin; type: cell-based, mouse; settings: FIG. 3, β-actin internal control
Description: as §6, §7, §8, §9

[7] = system: 3T3-L1 mouse preadipocytes; assay: Cytotoxicity in adipocyte differentiation experiment; type: cell-based; settings: FIG. 3; adipocytes
[8] = target: T1, porcine α-amylase (Sus scrofa, UniProt P00690); assay: Inhibitory effect on porcine α-amylase; type: biochemical; settings: FIG. 4; 100 μM, pH 6.8, starch substrate
T1 construct: purchased Sigma
T1 sequence (P00690 16-511): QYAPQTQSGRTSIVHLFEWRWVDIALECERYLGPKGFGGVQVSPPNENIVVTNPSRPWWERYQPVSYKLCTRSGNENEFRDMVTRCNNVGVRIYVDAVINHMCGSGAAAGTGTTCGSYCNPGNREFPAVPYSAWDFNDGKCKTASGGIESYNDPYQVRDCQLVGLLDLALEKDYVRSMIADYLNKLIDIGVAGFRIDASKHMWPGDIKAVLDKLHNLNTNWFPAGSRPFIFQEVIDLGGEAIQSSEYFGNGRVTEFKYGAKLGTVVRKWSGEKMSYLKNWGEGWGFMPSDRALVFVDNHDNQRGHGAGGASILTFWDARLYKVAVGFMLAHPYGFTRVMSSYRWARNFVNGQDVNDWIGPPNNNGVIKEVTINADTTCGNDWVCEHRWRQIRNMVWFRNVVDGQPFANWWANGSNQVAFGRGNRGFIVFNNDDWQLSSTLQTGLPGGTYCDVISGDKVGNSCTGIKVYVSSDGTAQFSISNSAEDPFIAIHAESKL
Description: (§3) A glucose assay kit was purchased for use from Youngdong Company (Seoul, Korea). In addition, from Sigma Company, porcine α-amylase, yeast α-glucosidase, 3,5-dinitrosalicylic acid (DNS), p-nitrophenol glucoside (pNPG), rat intestinal acetone powder, sucrose, and maltose were purchased. Soluble starch was obtained from Samchun Chemical Company (Seoul, Korea), and Acarbose was purchased from Tokyo chemical industry Company (Tokyo, Japan).
5 μl of α-amylase (0.1 U/mL) was diluted with 50 mM phosphate buffer (pH 6.8), and the diluted solution was mixed with each of 100 μM (+)-isonitramine (1) or Compound 2 to 6 of Example 1. In addition, as a positive control group, Acarbose was mixed at the same concentration with (+)-isonitramine (1). […]
25 μl of DNS was added to the cooled reaction solutions, and a color reaction was induced at a temperature of 100° C. for 5 minutes. […] The solutions in which the color reaction was induced were transferred to a 96-well plate, and absorbance thereof was measured at a wavelength of 540 nm by using a 96-well microplate reader.
Here, the inhibitory effect was calculated according to Equation 1: Enzymatic inhibitory activity=(1−Ax/A0)×100% [Equation 1] • Ax indicates an absorbance value of […] upon treatment of isonitramine

[9] = target: T2, yeast α-glucosidase (Saccharomyces cerevisiae, UniProt P53341); assay: Inhibitory effect on yeast α-glucosidase (pNPG substrate); type: biochemical; settings: FIG. 4; 100 μM, pH 5.6, pNPG substrate
T2 construct: purchased Sigma
Description: as §3
5 μl of […] (0.1 U/mL) was diluted with 50 mM sodium acetate buffer (pH 5.6), and the diluted solution was mixed with each of 100 μM (+)-isonitramine (1) or Compound 2 to 6 of Example 1. In addition, as a positive control group, Acarbose was mixed at the same concentration with (+)-isonitramine (1).
The mixtures were pre-cultured at a temperature of 37° C. for 10 minutes, and 25 μl of pNPG was added thereto, followed by being cultured at a temperature of 60° C. for 10 minutes. Then, 1N NaOH was added thereto to stop the reaction.
Afterwards, the resulting solution in which a color reaction was induced was transferred to a 96-well plate, and absorbance thereof was measured at a wavelength of 405 nm by using a 96-well microplate reader.

[10] = system: metabolic enzymes essential for carbohydrate absorption; assay: Selectivity of inhibition of carbohydrate metabolism enzymes (FIG. 4); type: biochemical; settings: 100 μM, as compared with Compound 4 to 6
Description: The mixtures were pre-cultured at a temperature of 37° C. for 10 minutes, and 25 μl of 0.5% starch solution was added thereto, followed by being cultured at a temperature of 37° C. for 10 minutes. Then, the mixtures were cultured again at a temperature of 100° C. for 5 minutes to stop the reaction, and the mixtures were cooled.
25 μl of DNS was added to the cooled reaction solutions, and a color reaction was induced at a temperature of 100° C. for 5 minutes. The resulting solutions were cooled again. The solutions in which the color reaction was induced were transferred to a 96-well plate, and absorbance thereof was measured at a wavelength of 540 nm by using a 96-well microplate reader.
Here, the inhibitory effect was calculated according to Equation 1: Enzymatic inhibitory activity=(1−Ax/A0)×100% [Equation 1] • Ax indicates an absorbance value of a control group • A0 indicates an absorbance value of a test group upon treatment of isonitramine

[11] = system: zebrafish larvae; assay: Zebrafish toxicity (FIG. 5); type: in vivo; settings: zebrafish model
[12] = system: zebrafish; assay: Postprandial hyperglycemia in diabetic-inducible (streptozocin) zebrafish; type: in vivo; settings: FIG. 6; STZ-injected zebrafish fed flake mixed with compound at various concentrations for 1 hour
Description: The zebrafish was anesthetized by placing it in water at a temperature of 8° C. for 20 seconds.
For intraperitoneal injection, 350 mg/kg of a solution of 0.9% streptozocin (available from Sigma, St. Louis, Mo.) in 0.09% NaCl solution was injected with a syringe having 25 gauge needle (available from Trajan Scientific, Australia). Here, to a control group of zebrafish, the same amount of PBS was injected intraperitoneally. After the completion of the injection, the test and control groups of zebrafish were bread at a temperature of 24° C.
The zerafish was subjected to intraperitoneal injection of STZ or PBS three times (350 mg/kg) for a week. After the final injection, the zerafish was fed with commercial flake food (available from Tetrabits tropical flakes, Tetra, Germany) for 5 days.
After fasting for 24 hours, the zebrafish to which PBS was injected was fed with commercial flask food, and the zebrafish to which STZ was injected was fed with flake mixed with (+)-isonitramine (1) at various concentrations, for 1 hour. Afterwards, plasma blood of each zebrafish was enzymatically measured by using a glucose trinder kit.

[13] = system: HIT-T15 cells; assay: Insulin secretion of HIT-T15 cells (insulin ELISA); type: cell-based; settings: FIG. 7
Description: To identify effects of isonitramine derivatives on insulin secretion, a type of insulin cells, e.g., HIT-T15 cells, were obtained by the Korean Cell Line Back, and then, subcultured. In detail, the HIT-T15 cells were cultured in a RPMI1640 medium (available from invitrogen. Co, USA) supplemented with 10% fetal bovine serum (FBS, available from invitrogen. Co, New Zealand 10091-148), 100 mu/ml of penicillin, and 100 μg/ml of streptomycin, under humidification conditions of a temperature of 37° C. and 5% CO2.
Insulin secretion influenced by (+)-isonitramine was measured according to the recommended method using insulin ELISA kit (Cat.10-1113-01, available from Mercodia Company). First, the HIT-T15 cells were loaded to a 96-well plate at a concentration of 5×10^4 cells/well, and cultured until reaching 70% to 80% cell confluency in an incubator at a temperature of 37° C. in a CO2 incubator. Then, the cells were pre-treated with 500 μM alloxan, which induces a pancreatic-specific toxic response, for 30 minutes. Afterwards, (+)-isonitramine was added to each well, and cultured for 24 hours. The culture solution was collected therefrom, and subjected to a centrifugation at a speed of about 15,000 rpm for 3 minutes. […] The changes resulted from the termination of the reaction were measured by using an ELISA-reader (VERSA max, micro-reader, MDS. Co, USA) at a wavelength of 450 nm.

[14] = system: zf preproinsulin (insa); assay: Insulin expression in zebrafish embryo (RT-PCR); type: in vivo; settings: FIG. 8; zebrafish embryo 96 hpf treated 48 hours
Description: (§4) In the experiment performed to verify the effect on the amount of insulin secretion, the zebrafish embryo underwent 96 hour post-fertilization (hpf) was exuviated, and then, treated with isonitramine for 48 hours. In the experiment performed to verify the effect on gluconeogenesis, 100 mM cyclic AMP (cAMP) and 100 mM dexamethasone (DEX) were simultaneously treated with isonitramine, and then, cultured for 48 hours.
(§5) From the cultured embryo above, TRIzol (available from Invitrogen) was used to isolate mRNA, and the isolated RNA was synthesized to cDNA by using iScript cDNA Synthesis Kit (available from Bio-Rad). Afterwards, to amplify the cDNA, primers listed in Table 2 were used, wherein each primer was purchased from Bioneer.

[15] = system: phosphoenolpyruvate carboxykinase (PEPCK); assay: PEPCK expression in zebrafish embryo (RT-PCR); type: in vivo; settings: FIG. 9, with 100 mM cAMP and 100 mM dexamethasone, 48 hours
Description: as §4, §5

[16] = system: C/EBPα; settings: FIG. 3; RT-PCR, β-actin internal control
Description: as §6, §7, §8, §9

T2 sequence (P53341 whole entry): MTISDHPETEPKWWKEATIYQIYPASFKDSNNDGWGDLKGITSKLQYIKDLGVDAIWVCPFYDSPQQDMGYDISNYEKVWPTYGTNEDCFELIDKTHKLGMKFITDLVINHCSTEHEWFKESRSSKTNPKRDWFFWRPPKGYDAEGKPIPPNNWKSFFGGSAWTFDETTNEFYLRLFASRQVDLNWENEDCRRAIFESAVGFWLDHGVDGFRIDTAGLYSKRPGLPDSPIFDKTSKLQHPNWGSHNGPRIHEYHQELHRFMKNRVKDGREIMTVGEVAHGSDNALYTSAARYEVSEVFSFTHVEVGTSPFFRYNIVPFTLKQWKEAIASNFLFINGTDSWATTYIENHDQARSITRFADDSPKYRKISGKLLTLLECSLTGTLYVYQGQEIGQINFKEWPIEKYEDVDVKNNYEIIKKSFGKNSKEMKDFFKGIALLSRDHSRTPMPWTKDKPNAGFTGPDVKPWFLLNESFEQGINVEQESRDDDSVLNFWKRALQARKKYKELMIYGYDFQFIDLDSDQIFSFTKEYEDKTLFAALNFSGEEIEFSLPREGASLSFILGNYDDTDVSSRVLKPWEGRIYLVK

SMILES	differentiation of 3T3-L1 mouse preadipocytes into mature adipocytes [1]	concentration of triglyceride [2]	mRNA expression of PPARγ [3]	mRNA expression of aP2 [4]	mRNA expression of LPL [5]	mRNA expression of adiponectin [6]	cytotoxicity [7]	inhibition of α-amylase [8]	inhibition of α-glucosidase [9]	selective inhibitory effects on metabolic enzymes essential for carbohydrate absorption [10]	cardiovascular toxicity [11]	developmental toxicity [11]	blood glucose [12]	insulin secretion ([13]; HIT-T15 cells pre-treated with 500 μM alloxan 30 minutes, then compound 24 hours)	expression of insulin [14]	inhibitory effect on the expression of PEPCK [15]	mRNA expression of C/EBPα [16]	insulin secretion ([13]; HIT-T15 cells treated with 500 μM alloxan, normal state 33.39±1.12 ng/mL (n=4)) [ng/mL]
O[C@@H]1CCCC[C@]12CCCNC2 [(+)-isonitramine (1), (+)-isonitramine]	inhibited the differentiation	decreased the concentration of triglyceride in a concentration-dependent manner	inhibited	weakened	weakened	weakened	without cytotoxicity	hardly inhibited	inhibiting	selective inhibitory effects	no	no	reduction of blood glucose in a concentration-dependent manner	increasing the insulin secretion in a concentration-dependent manner	increased	significantly increased in proportion to the concentration	inhibited	
O=C1NC(=O)C(=O)C(=O)N1 [alloxan, reference compound]																		18.92 ± 0.43
